Experimental data published in patent US20220409587A1, “METHODS OF TREATING HIV-1 INFECTION” (BIOTRON LIMITED, priority 2019, published 2022).
Several values for one entry are separate records, joined by “and”; a condition that tells them apart may be missing. Equal entries are not always repeated. Entries after “also recorded” stand apart in the source; their conditions may differ.

What was measured:
Format in all cases: in vivo, human
[1] = tested on: HIV-1; assay: Phase 2 study: plasma HIV-1 viral load decay (Roche COBAS TaqMan HIV-1); settings: 200 mg BIT225 QD + ART vs placebo QD + ART, 12 weeks, treatment-naive HIV-1 patients
Experimental: (§1) A Phase 2, multi-centre, randomized, placebo-controlled, double-blind study of BIT225 in combination with ART (Atripla—efavirenz/emtricitabine/tenofovir DF) was undertaken in patients with HIV-1 infection that were treatment-naive. Patients were randomized into two groups on a 2:1 basis, with one group receiving BIT225 (100 mg QD; 6 patients: placebo; 3 patients), and one group receiving BIT225 (200 mg QD, 18 patients: placebo; 9 patients), with a total of 36 patients enrolled in the trial. The 100 mg BIT225 group was primarily included for detailed PK analyses due to limitations on the quantity of blood that could be drawn at time points coinciding with analyses of viral load decay, which were limited to the 200 mg cohort. All subjects received the standard dose of ART in addition to 12 weeks BIT225 or placebo study treatment. At the conclusion of the trial, patients remained on ART as per standard treatment protocols. HIV-1-infected subjects, males and females, aged 18 to 65 years inclusive, who were naive to ART were recruited. Individuals had HIV-1 RNA>5,000 copies/mL and CD4^+ T cell count>100 cells/mm^3.
(§2) There were two treatment cohorts. The first cohort received 100 mg capsule of BIT225 or placebo QD with ART for 12 weeks. […]
HIV-1 plasma viral load was determined in real time by Roche COBAS TaqMan HIV-1 currently approved version (Roche Diagnostics).

[2] = tested on: activated CD4^+ T cells (CD4^+/HLA-DR^+/CD38^+); assay: Phase 2 study: activated CD4+ T cell numbers by flow cytometry
Experimental: as §1, with “Individuals had HIV-1 RNA>5,000 copies/mL and CD4^+ T cell count>100 cells/mm^3.” left out
(§3) Analyses for cell populations (T cells and NK cells) were performed in real time by flow cytometry (CD4^+, CD8^+, CD38^+, and HLA-DR^+ for T cells, and CD16^+, CD45^+ and CD56^+ for NK cells). […] Immune activation markers measured by flow cytometry were performed in real time alongside CD4^+, CD8^+ and CD14^+ enumeration at HIV-NAT laboratory, Bangkok Thailand.

[3] = tested on: activated CD8^+ cell (CD8^+/HLA-DR^+/CD38^+); assay: Phase 2 study: activated CD8+ T cell numbers by flow cytometry; settings: 200 mg BIT225 QD + ART vs placebo + ART, 12 weeks; ±29 SEM; P<0.01
Experimental: as §1, with “Individuals had HIV-1 RNA>5,000 copies/mL and CD4^+ T cell count>100 cells/mm^3.” left out
as §3

[4] = tested on: NK cells; assay: Phase 2 study: NK cell numbers by flow cytometry
Experimental: as §1
There were two treatment cohorts. The first cohort received 100 mg capsule of BIT225 or placebo QD with ART for 12 weeks. Cohort 2 were given two 100 mg capsules BIT225 (200 mg BIT225) or placebo QD with ART. ART was 1 fixed dose combination tablet of Atripla.
Analyses for cell populations (T cells and NK cells) were performed in real time by flow cytometry (CD4^+, CD8^+, CD38^+, and HLA-DR^+ for T cells, and CD16^+, CD45^+ and CD56^+ for NK cells). ELISA assays were run for sCD163 and Th17 related cytokines. Immune activation markers measured by flow cytometry were performed in real time alongside CD4^+, CD8^+ and CD14^+ enumeration at HIV-NAT laboratory, Bangkok Thailand.

[5] = tested on: soluble CD163 (sCD163); assay: Phase 2 study: plasma sCD163 by Macro163 ELISA
Experimental: as §1, §2
The macrophage and monocyte activation marker sCD163 was measured in plasma by Macro163™ ELISA (IQ Products, Groningen, The Netherlands).

[6] = tested on: IL-21; assay: Phase 2 study: plasma Th17 related cytokines (MSD U-Plex), IL-21
Experimental: as §1, with “At the conclusion of the trial, patients remained on ART as per standard treatment protocols. HIV-1-infected subjects, males and females, aged 18 to 65 years inclusive, who were naive to ART were recruited. Individuals had HIV-1 RNA>5,000 copies/mL and CD4^+ T cell count>100 cells/mm^3.” left out
(§4) Th17 cells regulate other immune cells, specifically neutrophils and macrophages, by secreting a variety of cytokines in response to pathogens. Plasma samples were analysed to determine the level of the Th17 related cytokines (IL-21, IFN-γ, IL-1p, IL-6, IL-10, IL-17A, IL-17E/IL-25, IL-17F, IL-22, and TNF-α) during the 12 week treatment period using electro-chemiluminescence MSD U-Plex Biomarker Group Th17 (Human Combo 2) Human Multiplex Assay (MesoScaleDiscovery, MD, USA).

[7] = tested on: IFN-γ; assay: Phase 2 study: plasma Th17 related cytokines (MSD U-Plex), IFN-γ
Experimental: as §1, with “At the conclusion of the trial, patients remained on ART as per standard treatment protocols. HIV-1-infected subjects, males and females, aged 18 to 65 years inclusive, who were naive to ART were recruited. Individuals had HIV-1 RNA>5,000 copies/mL and CD4^+ T cell count>100 cells/mm^3.” left out
as §4

[8] = tested on: IL-6; assay: Phase 2 study: plasma Th17 related cytokines (MSD U-Plex), IL-6
Experimental: as §1, with “At the conclusion of the trial, patients remained on ART as per standard treatment protocols. HIV-1-infected subjects, males and females, aged 18 to 65 years inclusive, who were naive to ART were recruited. Individuals had HIV-1 RNA>5,000 copies/mL and CD4^+ T cell count>100 cells/mm^3.” left out
as §4

[9] = tested on: IL-10; assay: Phase 2 study: plasma Th17 related cytokines (MSD U-Plex), IL-10; settings: BIT225 cohort vs placebo (data not shown)
Experimental: as §1, with “At the conclusion of the trial, patients remained on ART as per standard treatment protocols. HIV-1-infected subjects, males and females, aged 18 to 65 years inclusive, who were naive to ART were recruited. Individuals had HIV-1 RNA>5,000 copies/mL and CD4^+ T cell count>100 cells/mm^3.” left out
as §4

For `Cn1cc(-c2cccc3cc(C(=O)NC(=N)N)ccc23)cn1` [BIT225, N-carbamimidoyl-5-(1-methylpyrazol-4-yl)naphthalene-2-carboxamide], the “Plasma HIV-1 RNA decline versus placebo” value [1] was “declined in a similar manner”, the “Time activated CD4+ T cells remained elevated” value ([2]; 100 mg BIT225 QD + ART (data not shown)) was “approximately 50 days” and the “Change from baseline of activated CD4+ T cell numbers compared to placebo” value ([2]; 200 mg BIT225 QD + ART vs placebo + ART, 12 weeks) was “sustained delay in decline; also recorded: statistically significant delayed reduction”. The “Estimated average difference in activated CD8+ T cells, BIT225 cohort versus placebo (two-factor linear model)” value [3] was 85 cells/ml, the “Estimated average difference in NK cells, BIT225 cohort versus placebo (two-factor linear model)” value ([4]; 200 mg BIT225 QD + ART vs placebo + ART, 12 weeks, SEM, P<0.01) was 71 cells/ml and 71±23 cells/ml and the “Time to peak of NK cell numbers after commencing treatment” value ([4]; BIT225 + ART) was 24 to 48 h. The “NK cell numbers during treatment versus placebo” value ([4]; BIT225 + ART, 12-week treatment) was “remained higher”, the “Linear model estimate β1 of larger overall decrease in sCD163 for BIT225 versus placebo” value ([5]; 200 mg BIT225 QD + ART vs placebo + ART, 12 weeks, ±SE, P=0.036) was 208 ± 99 ng/mL and the “sCD163 over 12 weeks compared to ART alone” value ([5]; BIT225 + ART vs ART + placebo) was “significantly reduced; also recorded: statistically significant decline”. The “Plasma IL-21 versus placebo over the first 3 weeks (ANOVA)” value ([6]; 200 mg BIT225 QD + ART vs placebo + ART, P=0.02) was “statistically significant increase; also recorded: statistically significantly increased”, the “Time of peak plasma IL-21” value ([6]; BIT225 + ART) was 3 week and the “Subjects with IFN-γ transient spike” value ([7]; BIT225 cohort (data not shown)) was 16 of 18. The “IFN-γ cohort mean response” value ([7]; BIT225 cohort + ART) was “transient spike at Day 14”, the “Subjects with transient spike of plasma IL-6 in first 3 weeks” value ([8]; BIT225 + ART) was 8 of 18 and the “IL-6 response after 3 weeks, change from baseline (Log10)” value ([8]; BIT225 cohort vs placebo (data not shown)) was “remained higher than placebo”. For the same compound, the “IL-10 levels versus placebo over 12 weeks” value [9] was “not statistically significant”.
